What follows are compounds tested against T1, POLγA:R309C (Homo sapiens, UniProt P54098, R309C) (assay: DNA polymerization assay, POLγA:R309C mutant). Settings: stimulation of polymerase activity, primed M13mp18 ssDNA, 37° C. 2 hours.
T1 sequence (P54098 1-1239 R309C): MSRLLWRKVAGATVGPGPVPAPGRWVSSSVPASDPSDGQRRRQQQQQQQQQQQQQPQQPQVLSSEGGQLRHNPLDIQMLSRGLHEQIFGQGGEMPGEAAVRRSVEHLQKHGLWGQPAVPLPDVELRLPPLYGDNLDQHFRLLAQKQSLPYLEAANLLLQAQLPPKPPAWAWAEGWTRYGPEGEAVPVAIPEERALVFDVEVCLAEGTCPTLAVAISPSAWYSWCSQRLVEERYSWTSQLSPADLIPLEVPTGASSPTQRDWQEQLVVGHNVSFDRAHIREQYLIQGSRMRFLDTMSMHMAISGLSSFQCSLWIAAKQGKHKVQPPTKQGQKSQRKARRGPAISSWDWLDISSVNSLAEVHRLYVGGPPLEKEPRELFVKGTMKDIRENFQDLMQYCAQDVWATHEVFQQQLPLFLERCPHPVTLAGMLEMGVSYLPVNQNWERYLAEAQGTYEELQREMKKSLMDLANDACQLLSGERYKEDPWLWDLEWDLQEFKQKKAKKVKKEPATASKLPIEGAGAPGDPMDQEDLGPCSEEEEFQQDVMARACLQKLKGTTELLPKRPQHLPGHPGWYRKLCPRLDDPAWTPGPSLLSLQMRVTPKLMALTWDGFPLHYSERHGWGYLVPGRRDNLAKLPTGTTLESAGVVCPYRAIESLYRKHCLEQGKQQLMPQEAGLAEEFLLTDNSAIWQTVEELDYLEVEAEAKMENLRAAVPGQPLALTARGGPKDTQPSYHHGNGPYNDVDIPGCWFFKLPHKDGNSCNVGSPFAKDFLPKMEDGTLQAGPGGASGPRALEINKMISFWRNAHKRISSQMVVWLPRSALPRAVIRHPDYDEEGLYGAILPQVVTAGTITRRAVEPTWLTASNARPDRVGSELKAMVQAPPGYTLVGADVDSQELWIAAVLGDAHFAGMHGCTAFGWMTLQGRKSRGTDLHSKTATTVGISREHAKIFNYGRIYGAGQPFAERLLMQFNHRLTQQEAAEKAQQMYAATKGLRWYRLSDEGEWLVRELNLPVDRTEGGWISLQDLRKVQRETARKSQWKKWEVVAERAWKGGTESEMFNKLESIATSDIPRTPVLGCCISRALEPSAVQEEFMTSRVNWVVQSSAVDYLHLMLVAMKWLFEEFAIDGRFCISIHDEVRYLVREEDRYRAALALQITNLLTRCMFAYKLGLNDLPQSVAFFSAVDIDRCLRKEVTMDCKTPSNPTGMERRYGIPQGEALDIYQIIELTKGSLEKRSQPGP
T1 sequence (Q9UHN1 1-485 partner): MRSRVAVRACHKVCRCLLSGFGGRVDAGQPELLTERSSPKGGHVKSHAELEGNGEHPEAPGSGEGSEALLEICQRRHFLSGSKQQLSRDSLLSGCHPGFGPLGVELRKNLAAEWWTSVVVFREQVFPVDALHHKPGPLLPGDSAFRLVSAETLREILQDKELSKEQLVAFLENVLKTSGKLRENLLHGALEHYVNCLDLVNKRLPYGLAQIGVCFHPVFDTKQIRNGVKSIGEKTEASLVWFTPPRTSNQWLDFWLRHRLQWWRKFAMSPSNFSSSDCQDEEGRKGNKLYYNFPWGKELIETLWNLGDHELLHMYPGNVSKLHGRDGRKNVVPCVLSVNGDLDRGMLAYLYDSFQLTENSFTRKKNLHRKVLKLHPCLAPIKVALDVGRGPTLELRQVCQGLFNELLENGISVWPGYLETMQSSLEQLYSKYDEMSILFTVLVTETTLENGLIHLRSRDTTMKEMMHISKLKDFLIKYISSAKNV
Type: biochemical
Experimental: DNA Polymerization Assay to Monitor Effects on Human Wildtype POLγ and Four Disease-Causing Mutant Variants of Human POLγ.
The ability of small molecules to stimulate the polymerase activity of POLγ was analyzed in a quantitative fluorescence SYBR Green I assay with fluorescence intensity (FI) readout.
In the presence of dNTPs, wild type human POLγ and mutant derivatives thereof were incubated with single-stranded, circular M13mp18 ssDNA hybridized to a short DNA oligonucleotide that functions as a primer for initiation of DNA synthesis. POLγ and mutant derivatives thereof will extend the primer and use the M13mp18 molecule as a template to synthesize long stretches of double-stranded DNA. SYBR Green I, which is a double-stranded DNA-binding dye, was used to quantify formation of double-stranded DNA in the reaction. When bound to double-stranded DNA, SYBR Green I fluorescence increases by up to 100-fold.
The assay was performed in the 384-well plate format. Upon addition of compounds, changes in double-stranded DNA synthesis activity can be monitored by following effects on fluorescent intensity.
The reactions also contained the accessory POLγB subunit, and the human mitochondrial single-stranded DNA binding protein (mtSSB).
The DNA template mixture used in the assay contained 0.5 nM primed M13 mp18 ssDNA, 400 nM mtSSB, 0.1 mM Tris-HCl (pH 8.0), 0.1 mM dNTP, 10 mM MgCl2, 0.1 mg/mL BSA, 1 mM TCEP solution, and 0.02% Triton X-100. The DNA template mixture for the wild type protein contained either 100 μM dNTP, 1 μM dNTP, or 0.1 μM dNTP, designated in Table 2 as 100 μM, 1 μM, and 0.1 μM, respectfully.
Microplates with compounds (0.1 μL in each well) to be tested in the assay were prepared from 10 mM compound stocks in 100% DMSO, and equal amounts of DMSO without any compound were added to positive and negative control wells.
The protein mixture was dispensed (5 μL into each well) into compound plates and incubated at 37° C. for 15 minutes. After incubation, 5 μL of the DNA template mixture was dispensed into each well. The plates were then incubated at 37° C. for 2 hours.
During incubation, a combined stop buffer and detection reagent solution was prepared. The buffer contained 25 mM EDTA (pH 8.0), 0.02% Triton X-100, and SYBR Green I [Invitrogen] diluted 10,000× (for fluorescent readout). EDTA will stop the enzymatic reaction by chelating magnesium ions.

Going from `Cc1cc(S(=O)(=O)Nc2ccc3ccn(C)c3c2)c(C)cc1Cl` [Example 72, 4-chloro-2,5-dimethyl-N-(1-methyl-1H-indol-6-yl)benzenesulfonamide] to `Cc1nc2ccc(NS(=O)(=O)c3cc(C)c(Cl)cc3C)cc2s1` [Example 73, 4-chloro-2,5-dimethyl-N-(2-methylbenzo[d]thiazol-6-yl)benzenesulfonamide], the AC50 falls from 30 µM to 1 µM (30-fold).

First: Cc1cc(S(=O)(=O)Nc2cccc(-c3ncc(C4CC4)s3)c2)c(C)cc1Cl [Example 76, 4-chloro-N-(3-(5-cyclopropylthiazol-2-yl)phenyl)-2,5-dimethylbenzenesulfonamide]
Second: Cc1cc(S(=O)(=O)Nc2cccc(-c3ncc(CO)s3)c2)c(C)cc1Cl [Example 89, 4-chloro-N-(3-(5-(hydroxymethyl)thiazol-2-yl)phenyl)-2,5-dimethylbenzenesulfonamide]
The AC50 of the first is 1.5-fold higher: 6 µM for the first, 4 µM for the second.

First: Cc1csc(-c2ccccc2NS(=O)(=O)c2cc(C)c(Cl)cc2C)n1 [Example 80, 4-chloro-2,5-dimethyl-N-(2-(4-methylthiazol-2-yl)phenyl)benzenesulfonamide]
Second: Cc1cc(S(=O)(=O)Nc2csc(-c3ccccc3)n2)c(C)cc1Cl [Example 81, 4-chloro-2,5-dimethyl-N-(2-phenylthiazol-4-yl)benzenesulfonamide]
The AC50 of the first is higher: over 100 µM for the first, 0.6 µM for the second.

With `Cc1cc(S(=O)(=O)Nc2cccc(-c3ncc(CN(C)C)s3)c2)c(C)cc1Cl` [Example 87, 4-chloro-N-(3-(5-((dimethylamino)methyl)thiazol-2-yl)phenyl)-2,5-dimethylbenzenesulfonamide] the AC50 was 6 µM.

— patent publication US20260138961A1, “MODULATORS OF MITOCHONDRIAL DNA REPLICATION” (Pretzel Therapeutics, Inc., priority 2022, published 2026)
